From patent US4663435A, “Bridged cyclic hexapeptide somatostatin analogs” (Merck & Co., Inc., priority 1985, dated 1987)
Positions of bridges follow the written chain, without caps; N, C: chain ends. Non-standard residues stand in square brackets, D forms with d. Residues, ends and D or L forms follow the SMILES beside them.

Columns and labels:
portal vein insulin = test: decrease of portal vein insulin levels in anesthetized rats; type: in vivo, rat; conditions: multiple or fraction of the effect of somatostatin (=1), fiducial limits in parentheses, external jugular vein, portal vein blood after 5 minutes
Procedure: (§1) Analogs of somatostatin were compared to somatostatin in their ability to decrease the levels of portal vein glucagon and insulin in anesthetized rats. Male Sprague-Dawley rats (Charles River CD) weighing 160-200 g were anesthetized with urethane (150 mg/100 g of body weight; Aldrich). Saline or peptides were adminstered via the external jugular vein. After 5 minutes, the portal vein was exposed, and blood was collected via syringe containing 3 mg of EDTA and placed in chilled tubes containing 100 μl of Trasylol (FBA Pharmaceuticals) for subsequent hormone analysis. Plasma levels of glucagon were determined by the method of Faloona and Unger, Methods of Hormone Radioimmunoassay, Jaffe and Behrman (Eds), Academic Press, New York, Vol. II, pp. 257-527 (1976), utilizing glucagon antisera 30K obtained from R. Unger (Dallas, TX). Plasma levels of insulin were determined by a modification of the procedure of Herbert et al., J. Clin. Endocrinol. Metab., 25, 1375-1384 (1965).

portal vein glucagon = test: decrease of portal vein glucagon levels in anesthetized rats; type: in vivo, rat; conditions: relative to somatostatin (=1), external jugular vein, portal vein blood after 5 minutes
Procedure: as §1

[1] = stability of the isolated peptide with respect to polymerization; type: physicochemical
Procedure: In order to stabilize the compound toward such decomposition it was treated in aqueous solution with 10-40 mole % of N-ethylmaleimide, a reagent which will react with free sulfhydryl groups that could catalyze disulfide interchange. The excess N-ethyl maleimide was separated by passage through a column of Sephadex G-25 gel (superfine) eluted with 50% acetic acid.

[2] = system: growth hormone release from rat pituitary cells; test: in vitro test for the inhibition of growth hormone release, cultured rat pituitary cells; type: cell-based; conditions: multiple or fraction of the effect of somatostatin (=1), fiducial limits in parentheses, 4 hours incubation
Procedure: The instant cyclic hexapeptide analogs of somatostatin are tested and compared with the effects of somatostatin in an in vitro test for the inhibition of growth hormone. The test is described as follows:
"Rat pituitaries were isolated according to the procedures of Vale and Grant `In Vitro Pituitary Hormone Secretion Assay for Hypophysiotropic Substances` in Methods in Enzymology. Vol. XXXVII, eds. O'Malley, B. W. and Hardman, J. G. (Academic Press, Inc., New York) pp. 5-93 (1975).
After 4 days in culture, the cells were washed and incubated for 4 hours in Dulbecco-modified Eagle's medium in the presence or absence of graded doses of each analog or somatostatin. The medium was then collected for subsequent growth hormone determination by a double antibody radioimmunoassay for rat growth hormone."

Row | SMILES | Insulin Inhibition (portal vein insulin) | Glucagon Inhibition (portal vein glucagon) | stability with respect to polymerization ([1]; after treatment with 10-40 mole % of N-ethylmaleimide and reisolation) | stability with respect to polymerization ([1]; sample as isolated, in certain solvents or on extended storage) | Growth Hormone Release Inhibition [2]
1 | C[C@@H](O)[C@@H]1NC(=O)[C@H](CCCCN)NC(=O)[C@@H](Cc2c[nH]c3ccccc23)NC(=O)[C@H](Cc2ccccc2)NC(=O)[C@@H]2CSSC[C@H](NC1=O)C(=O)N2 (cyclo(CCF[dW]KT); disulfide 1-2) | 10.6(5.5-19.9) | Active | completely stable | unstable | 2.47(1.66-3.81)
2 | C[C@H](N)C(=O)NCC(=O)N[C@H]1CSSC[C@@H](C(=O)O)NC(=O)[C@H](CO)NC(=O)[C@H]([C@@H](C)O)NC(=O)[C@H](Cc2ccccc2)NC(=O)[C@H]([C@@H](C)O)NC(=O)[C@H](CCCCN)NC(=O)[C@H](Cc2c[nH]c3ccccc23)NC(=O)[C@H](Cc2ccccc2)NC(=O)[C@H](Cc2ccccc2)NC(=O)[C@H](CC(N)=O)NC(=O)[C@H](CCCCN)NC1=O [Somatostatin] |  | 1 |  |  | 
